In patent US20200291018A1, “TAM KINASE INHIBITORS” (SYROS PHARMACEUTICALS, INC., priority 2017, published 2020):

How the values were obtained:
[1] = molecular target: T1, FLT3 (Homo sapiens, UniProt P36888); assay: TR-FRET kinase activity assay, FLT3; assay type: biochemical; details: ATP at Km, 60 minutes
T1 sequence (P36888 27-993): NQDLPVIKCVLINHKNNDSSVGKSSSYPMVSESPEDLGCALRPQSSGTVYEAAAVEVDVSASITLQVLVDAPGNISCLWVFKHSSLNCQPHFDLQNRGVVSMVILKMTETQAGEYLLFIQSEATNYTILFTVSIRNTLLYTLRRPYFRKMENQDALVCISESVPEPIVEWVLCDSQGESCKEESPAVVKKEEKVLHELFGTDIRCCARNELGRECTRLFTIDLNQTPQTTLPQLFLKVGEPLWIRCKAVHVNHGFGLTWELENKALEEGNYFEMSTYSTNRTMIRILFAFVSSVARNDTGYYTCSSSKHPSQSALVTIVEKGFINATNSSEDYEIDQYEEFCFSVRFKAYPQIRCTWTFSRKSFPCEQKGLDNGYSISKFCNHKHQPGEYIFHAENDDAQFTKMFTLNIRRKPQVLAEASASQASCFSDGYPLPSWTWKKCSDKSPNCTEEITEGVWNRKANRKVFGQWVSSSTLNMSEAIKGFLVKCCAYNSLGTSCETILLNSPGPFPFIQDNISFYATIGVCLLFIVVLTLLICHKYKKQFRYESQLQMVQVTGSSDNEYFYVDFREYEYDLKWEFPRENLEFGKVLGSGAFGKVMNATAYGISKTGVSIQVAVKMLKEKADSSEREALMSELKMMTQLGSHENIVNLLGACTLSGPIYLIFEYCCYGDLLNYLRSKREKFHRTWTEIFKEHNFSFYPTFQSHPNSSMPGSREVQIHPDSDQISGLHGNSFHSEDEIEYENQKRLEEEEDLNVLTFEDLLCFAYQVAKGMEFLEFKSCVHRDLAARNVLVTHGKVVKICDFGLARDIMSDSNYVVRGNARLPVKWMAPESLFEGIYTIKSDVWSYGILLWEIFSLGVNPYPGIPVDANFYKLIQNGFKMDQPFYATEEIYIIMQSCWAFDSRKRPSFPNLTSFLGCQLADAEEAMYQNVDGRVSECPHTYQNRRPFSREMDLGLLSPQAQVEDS
Procedure: (§1) IC50 values for compound inhibition of AXL, FLT3, MERTK and TYRO3 activity were determined using a TR-FRET activity assay. A peptide substrate with a fluorescent label is phosphorylated on a tyrosine by each enzyme, where the now phosphorylated product is bound by a Europium-labeled antibody specific to that phosphorylation site. The proximity between the antibody and the substrate gives a signal known as TR-FRET. As the enzyme is inhibited by compound, less phosphorylated peptide product is made, causing a decrease in overall signal.
(§2) Activity assays were performed in a 384-well, small volume, black microplates in an active enzyme volume of 10 uL and final developed volume of 20 uL. Final assay conditions are 50 mM HEPES pH 7.5, 10 mM MgCl2, 1 mM EGTA, 0.01% Brij 35 and 1 mM DTT, all at RT. Enzyme, substrate-labeled peptide and compound are mixed, and then the reaction is initiated with the addition of ATP at Km concentration for each enzyme. The reaction is allowed to run 60 minutes and then quenched with a 12.5 mM EDTA (ethylenediamine tetraacetic acid) solution. The plate is then developed with the addition of Europium-labeled antibody for a final volume of 20 uL and is then incubated for 30 minutes in darkness. Plates are read in a PHERASTAR® plate reader. Data are analyzed in GraphPad PRISM.

[2] = molecular target: T2, MERTK (Homo sapiens, UniProt Q12866); assay: TR-FRET kinase activity assay, MERTK; assay type: biochemical; details: for IC50: TR-FRET activity assay, ATP at Km, 60 minutes, read-out: Mer IC50; for Mer/Flt3 ratio (FLT3 IC50/Mer IC50): ratio calculated as FLT3 IC50/Mer IC50
T2 sequence (Q12866 21-999): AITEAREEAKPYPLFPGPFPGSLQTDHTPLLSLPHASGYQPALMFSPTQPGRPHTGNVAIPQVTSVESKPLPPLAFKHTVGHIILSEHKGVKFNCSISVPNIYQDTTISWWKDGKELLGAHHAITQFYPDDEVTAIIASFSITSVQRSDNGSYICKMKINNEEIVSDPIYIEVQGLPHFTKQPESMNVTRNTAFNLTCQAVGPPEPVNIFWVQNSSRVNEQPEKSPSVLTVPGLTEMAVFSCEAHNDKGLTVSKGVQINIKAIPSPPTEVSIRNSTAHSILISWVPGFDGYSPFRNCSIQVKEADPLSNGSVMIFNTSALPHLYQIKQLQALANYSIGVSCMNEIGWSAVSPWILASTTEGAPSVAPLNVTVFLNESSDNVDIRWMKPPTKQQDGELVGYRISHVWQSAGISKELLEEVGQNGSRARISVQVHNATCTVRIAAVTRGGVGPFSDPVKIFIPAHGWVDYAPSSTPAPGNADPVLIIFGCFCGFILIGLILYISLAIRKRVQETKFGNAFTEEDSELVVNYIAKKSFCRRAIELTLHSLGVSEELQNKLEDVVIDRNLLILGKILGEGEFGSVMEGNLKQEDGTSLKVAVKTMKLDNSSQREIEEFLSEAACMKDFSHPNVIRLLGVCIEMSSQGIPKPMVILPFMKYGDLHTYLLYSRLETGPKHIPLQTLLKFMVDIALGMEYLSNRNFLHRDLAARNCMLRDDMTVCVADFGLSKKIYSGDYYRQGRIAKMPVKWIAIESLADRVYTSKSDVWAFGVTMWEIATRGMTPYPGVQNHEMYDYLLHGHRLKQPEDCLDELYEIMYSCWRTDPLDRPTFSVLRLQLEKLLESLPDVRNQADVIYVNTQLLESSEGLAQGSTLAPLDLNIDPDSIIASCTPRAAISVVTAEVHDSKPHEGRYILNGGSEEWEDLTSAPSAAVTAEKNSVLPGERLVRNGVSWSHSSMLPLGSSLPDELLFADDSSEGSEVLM
Procedure: as §1, §2

| SMILES | IC50 [1] [µM] | IC50 [2] [µM] | Mer/Flt3 ratio (FLT3 IC50/Mer IC50) [2] |
| --- | --- | --- | --- |
| CC[C@H](C)Nc1ncc2c(OC3CC(C)(C)N(C)C(C)(C)C3)ncc([C@H]3CC[C@H](O)CC3)c2n1 [Compound 227] | 0.1 to 1 | ≤ 0.1 | +++ (a ratio of >100) |
| CC[C@H](C)Nc1ncc2c(NC34CCC(O)(CC3)CC4)ncc([C@H]3CC[C@H](O)CC3)c2n1 [Compound 238] | 0.1 to 1 | ≤ 0.1 | ++ (a ratio of between 10 and 100) |
| CCCC(C)Nc1ncc2c(=O)n([C@@H]3CCCN(C)C3)cc([C@H]3CC[C@H](O)CC3)c2n1 (stereo partly drawn) [Compound 200] | 1 to 10 | ≤ 0.1 | +++ (a ratio of >100) |
| CC[C@H](C)Nc1ncc2c(NC3CCN(C)CC3)ncc([C@H]3CC[C@H](O)CC3)c2n1 [Compound 220] | 0.1 to 1 | ≤ 0.1 | +++ (a ratio of >100) |
| Cc1cc(Cl)ccc1Nc1ncc2c(OC3CCNCC3)ncc([C@H]3CC[C@H](O)CC3)c2n1 [Compound 198] | 0.1 to 1 | 0.1 to 1 | + (a ratio of >2.0 and <10) |
| O[C@H]1CC[C@H](c2cnc(OC3CCNCC3)c3cnc(N[C@@H]4CCCOC4)nc32)CC1 [Compound 232] | 0.1 to 1 | 0.1 to 1 | + (a ratio of >2.0 and <10) |
| O[C@H]1CC[C@H](c2cnc(OC3CCNCC3)c3cnc(Nc4ccc(Cl)cc4)nc32)CC1 [Compound 206] | ≤ 0.1 | ≤ 0.1 | + (a ratio of >2.0 and <10) |
| CC[C@H](C)Nc1ncc2c(O[C@H]3CC[C@H](C(C)(C)O)CC3)ncc([C@H]3CC[C@H](O)CC3)c2n1 [Compound 261] | 0.1 to 1 | ≤ 0.1 | ++ (a ratio of between 10 and 100) |
| CCc1cccc(Nc2ncc3c(OC4CCNCC4)ncc([C@H]4CC[C@H](O)CC4)c3n2)c1 [Compound 207] | 0.1 to 1 | ≤ 0.1 | ++ (a ratio of between 10 and 100) |
| CCOc1ncc(CC2CCN(C)CC2)c2nc(N[C@@H](C)CC)ncc12 [Compound 253] | 1 to 10 | 1 to 10 | ++ (a ratio of between 10 and 100) |
| CC[C@H](C)Nc1ncc2c(O[C@H]3CC[C@H](O)CC3)ncc([C@H]3CC[C@H](O)CC3)c2n1 [Compound 229] | 0.1 to 1 | ≤ 0.1 | ++ (a ratio of between 10 and 100) |
| COC[C@H](C)Nc1ncc2c(OC3CCOCC3)ncc(C3CCC4(CC3)OCCO4)c2n1 [Compound 243] | 1 to 10 | ≤ 0.1 | +++ (a ratio of >100) |
| CCCC(C)Nc1ncc2c(O[C@@H]3CCCN(C)C3)ncc([C@H]3CC[C@H](O)CC3)c2n1 (stereo partly drawn) [Compound 214] | 1 to 10 | ≤ 0.1 | ++ (a ratio of between 10 and 100) |
| CCOc1ncc([C@H]2CC[C@H](O)CC2)c2nc(N[C@@H](C)CC)ncc12 [Compound 235] | 0.1 to 1 | ≤ 0.1 | +++ (a ratio of >100) |
| CC[C@H](C)Nc1ncc2c(C)ncc([C@H]3CC[C@H](O)CC3)c2n1 [Compound 255] | 1 to 10 | ≤ 0.1 | +++ (a ratio of >100) |
| O[C@H]1CC[C@H](c2cnc(OC3CCNCC3)c3cnc(N[C@H]4CCCOC4)nc32)CC1 [Compound 216] | 1 to 10 | 0.1 to 1 | ++ (a ratio of between 10 and 100) |
| CC[C@H](C)Nc1ncc2c(OC3C[C@H]4CC[C@@H](C3)O4)ncc([C@H]3CC[C@H](O)CC3)c2n1 (stereo partly drawn) [Compound 223] | 0.1 to 1 | ≤ 0.1 | ++ (a ratio of between 10 and 100) |
| CC[C@H](C)Nc1ncc2c(OC3CCOCC3)ncc([C@H]3CC[C@H](O)CC3)c2n1 [Compound 226] | 0.1 to 1 | ≤ 0.1 | +++ (a ratio of >100) |
| O[C@H]1CC[C@H](c2cnc(OC3CCNCC3)c3cnc(NC4CCOCC4)nc32)CC1 [Compound 211] | 0.1 to 1 | ≤ 0.1 | ++ (a ratio of between 10 and 100) |
| O[C@H]1CC[C@H](c2cnc(OC3CCNCC3)c3cnc(N[C@@H]4CCOC4)nc32)CC1 [Compound 213] | 1 to 10 | ≤ 0.1 | ++ (a ratio of between 10 and 100) |
| CC[C@H](C)Nc1ncc2c(OC(CO)CO)ncc([C@H]3CC[C@H](O)CC3)c2n1 [Compound 241] | 1 to 10 | 0.1 to 1 | ++ (a ratio of between 10 and 100) |
| CCC[C@@H](C)Nc1ncc2c(OC3CCN(C)CC3)ncc([C@H]3CC[C@H](O)CC3)c2n1 [Compound 208] | 0.1 to 1 | ≤ 0.1 | +++ (a ratio of >100) |
| CC[C@H](C)Nc1ncc2c(=O)n(C[C@@H]3COCCN3C)cc([C@H]3CC[C@H](O)CC3)c2n1 [Compound 263] | 1 to 10 | ≤ 0.1 | +++ (a ratio of >100) |
| COC[C@H](C)Nc1ncc2c(OC3CCOCC3)ncc(C3=CCC4(CC3)OCCO4)c2n1 [Compound 242] | 1 to 10 | 0.1 to 1 | ++ (a ratio of between 10 and 100) |
| CC[C@H](C)Nc1ncc2c(OCC34CCC(O)(CC3)CC4)ncc([C@H]3CC[C@H](O)CC3)c2n1 [Compound 256] | 1 to 10 | ≤ 0.1 | +++ (a ratio of >100) |
| CC[C@H](C)Nc1ncc2c(OC3CCN(S(C)(=O)=O)CC3)ncc([C@H]3CC[C@H](O)CC3)c2n1 [Compound 233] | 0.1 to 1 | ≤ 0.1 | +++ (a ratio of >100) |
| CC(Nc1ncc2c(OC3CCNCC3)ncc([C@H]3CC[C@H](O)CC3)c2n1)c1ccncc1 (stereo partly drawn) [Compound 202] | 1 to 10 | 0.1 to 1 | ++ (a ratio of between 10 and 100) |
| CC[C@H](C)Nc1ncc2c(C3CCN(C)CC3)ncc([C@H]3CC[C@H](O)CC3)c2n1 [Compound 240] | 1 to 10 | ≤ 0.1 | +++ (a ratio of >100) |
